For this assay, the target named is MCH receptor (Homo sapiens, UniProt Q99705). Description: High throughput functional screening FLIPR/FDSS6000: inhibition of MCH-evoked intracellular Ca2+ changes. Particulars: class by percent of control at 10^−7 M or by IC50; read-out: class. The class given is cell-based. In outline:
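Cells expressing a non-endogenous, constitutively active MCH receptor were loaded with 4 μM Fluo4-AM (with probenecid) for 1 hr at 37° C. Test compound was preincubated 3 min at 37° C before 50 nM MCH was added. The [Ca2+]i transient was read at Ex 488/Em 530 nm for 290 s.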

As to `CN(C)c1nc(N[C@H]2CC[C@@H](NC(=O)c3ccc(Oc4cc(F)cc(F)c4)nc3)CC2)nc2ccccc12` [Example 1063, 6-(3,5-difluorophenoxy)-N-(cis-4-{[4-(dimethylamino)quinazolin-2-yl]amino}cyclohexyl)nicotinamide], the IC50 was above 200 nM.

Regarding `CN(C)c1nc(N[C@H]2CC[C@@H](NC(=O)c3ccc(Oc4cccc(F)c4F)nc3)CC2)nc2ccccc12` [Example 1064, 6-(2,3-difluorophenoxy)-N-(cis-4-{[4-(dimethylamino)quinazolin-2-yl]amino}cyclohexyl)nicotinamide], the IC50 is below 50 nM.

For the compound `CN(C)c1nc(N[C@H]2CC[C@@H](NC(=O)c3ccc(Oc4ccc(F)c(F)c4)nc3)CC2)nc2ccccc12` [Example 1065, 6-(3,4-difluorophenoxy)-N-(cis-4-{[4-(dimethylamino)quinazolin-2-yl]amino}cyclohexyl)nicotinamide], the IC50 is below 50 nM.

For `COc1cccc(Oc2ccc(C(=O)N[C@H]3CC[C@@H](Nc4nc(N(C)C)c5ccccc5n4)CC3)cn2)c1OC` [Example 1066, 6-(2,3-dimethoxyphenoxy)-N-(cis-4-{[4-(dimethylamino)quinazolin-2-yl]amino}cyclohexyl)nicotinamide], the IC50 was below 50 nM.

`COc1cc(Cl)ccc1Oc1ccc(C(=O)N[C@H]2CC[C@@H](Nc3nc(N(C)C)c4ccccc4n3)CC2)cn1` [Example 1068, 6-(4-chloro-2-methoxyphenoxy)-N-(cis-4-{[4-(dimethylamino)quinazolin-2-yl]amino}cyclohexyl)nicotinamide]: the IC50 is 50 to 200 nM.

As to `CN(C)c1nc(N[C@H]2CC[C@@H](NC(=O)c3ccc(Oc4ccc(Cl)c(F)c4)nc3)CC2)nc2ccccc12` [Example 1069, 6-(4-chloro-3-fluorophenoxy)-N-(cis-4-{[4-(dimethylamino)quinazolin-2-yl]amino}cyclohexyl)nicotinamide], the IC50 was below 50 nM.

Consider `CN(C)c1nc(N[C@H]2CC[C@@H](NC(=O)c3ccc(Oc4ccc(F)c(Cl)c4)nc3)CC2)nc2ccccc12` [Example 1070, 6-(3-chloro-4-fluorophenoxy)-N-(cis-4-{[4-(dimethylamino)quinazolin-2-yl]amino}cyclohexyl)nicotinamide], for which the IC50 is 50 to 200 nM.

Take `COc1cc(OC)cc(Oc2ccc(C(=O)N[C@H]3CC[C@@H](Nc4nc(N(C)C)c5ccccc5n4)CC3)cn2)c1` [Example 1071, 6-(3,5-dimethoxyphenoxy)-N-(cis-4-{[4-(dimethylamino)quinazolin-2-yl]amino}cyclohexyl)nicotinamide]: the IC50 is 50 to 200 nM.

Regarding `CN(C)c1nc(N[C@H]2CC[C@@H](NC(=O)c3ccc(Oc4cccc(Br)c4)nc3)CC2)nc2ccccc12` [Example 1072, 6-(3-bromophenoxy)-N-(cis-4-{[4-(dimethylamino)quinazolin-2-yl]amino}cyclohexyl)nicotinamide], the IC50 is above 200 nM.

Take `CN(C)c1nc(N[C@H]2CC[C@@H](NC(=O)c3ccnc(Oc4cccc(Cl)c4)c3)CC2)nc2ccccc12` [Example 1073, 2-(3-chlorophenoxy)-N-(cis-4-{[4-(dimethylamino)quinazolin-2-yl]amino}cyclohexyl)isonicotinamide]: the IC50 was in the range of 50 to 200 nM.

Take `CN(C)c1nc(N[C@H]2CC[C@@H](NC(=O)c3ccnc(Oc4ccc(Cl)cc4)c3)CC2)nc2ccccc12` [Example 1074, 2-(4-chlorophenoxy)-N-(cis-4-{[4-(dimethylamino)quinazolin-2-yl]amino}cyclohexyl)isonicotinamide]: the IC50 is below 50 nM.

For the compound `CN(C)c1nc(N[C@H]2CC[C@@H](NC(=O)COc3ccc(Cl)c(Cl)c3)CC2)nc2ccccc12` [Example 1075, 2-(3,4-dichlorophenoxy)-N-(cis-4-{[4-(dimethylamino)quinazolin-2-yl]amino}cyclohexyl)acetamide], the IC50 was below 50 nM.

For `Cc1ccc(OCC(=O)N[C@H]2CC[C@@H](Nc3nc(N(C)C)c4ccccc4n3)CC2)cc1C` [Example 1076, N-(cis-4-{[4-(dimethylamino)quinazolin-2-yl]amino}cyclohexyl)-2-(3,4-dimethylphenoxy)acetamide], the IC50 is above 200 nM.

For the compound `CN(C)c1nc(N[C@H]2CC[C@@H](NC(=O)COc3cc(Cl)c(Cl)cc3Cl)CC2)nc2ccccc12` [Example 1077, N-(cis-4-{[4-(dimethylamino)quinazolin-2-yl]amino}cyclohexyl)-2-(2,4,5-trichlorophenoxy)acetamide], the IC50 was in the range of 50 to 200 nM.

In the case of `CN(C)c1nc(N[C@H]2CC[C@@H](NC(=O)COc3ccc(F)cc3)CC2)nc2ccccc12` [Example 1078, N-(cis-4-{[4-(dimethylamino)quinazolin-2-yl]amino}cyclohexyl)-2-(4-fluorophenoxy)acetamide], the IC50 was below 50 nM.

On to `Cc1cccc(OCC(=O)N[C@H]2CC[C@@H](Nc3nc(N(C)C)c4ccccc4n3)CC2)c1` [Example 1079, N-(cis-4-{[4-(dimethylamino)quinazolin-2-yl]amino}cyclohexyl)-2-(3-methylphenoxy)acetamide], for which the IC50 is below 50 nM.

Consider `COc1ccc(OCC(=O)N[C@H]2CC[C@@H](Nc3nc(N(C)C)c4ccccc4n3)CC2)cc1` [Example 1080, N-(cis-4-{[4-(dimethylamino)quinazolin-2-yl]amino}cyclohexyl)-2-(4-methoxyphenoxy)acetamide], for which the IC50 was below 50 nM.

On to `COc1cccc(OCC(=O)N[C@H]2CC[C@@H](Nc3nc(N(C)C)c4ccccc4n3)CC2)c1` [Example 1081, N-(cis-4-{[4-(dimethylamino)quinazolin-2-yl]amino}cyclohexyl)-2-(3-methoxyphenoxy)acetamide], for which the IC50 is below 50 nM.

Consider `COc1ccccc1OCC(=O)N[C@H]1CC[C@@H](Nc2nc(N(C)C)c3ccccc3n2)CC1` [Example 1082, N-(cis-4-{[4-(dimethylamino)quinazolin-2-yl]amino}cyclohexyl)-2-(2-methoxyphenoxy)acetamide], for which the IC50 lay within 50 to 200 nM.

Turning to `CN(C)c1nc(N[C@H]2CC[C@@H](NC(=O)COc3ccc(Cl)cc3Cl)CC2)nc2ccccc12` [Example 1083, 2-(2,4-dichlorophenoxy)-N-(cis-4-{[4-(dimethylamino)quinazolin-2-yl]amino}cyclohexyl)acetamide], the IC50 is 50 to 200 nM.

Consider `CN(C)c1nc(N[C@H]2CC[C@@H](NC(=O)c3ccc(OCc4ccccc4)cc3)CC2)nc2ccccc12` [Example 1084, 4-(benzyloxy)-N-(cis-4-{[4-(dimethylamino)quinazolin-2-yl]amino}cyclohexyl)benzamide], for which the IC50 is above 200 nM.

`CN(C)c1nc(N[C@H]2CC[C@@H](NC(=O)CNc3ccccc3)CC2)nc2ccccc12` [Example 1085, N-(cis-4-{[4-(dimethylamino)quinazolin-2-yl]amino}cyclohexyl)-N2-phenylglycinamide]: the IC50 was below 50 nM.

With `Cc1cccc(NCC(=O)N[C@H]2CC[C@@H](Nc3nc(N(C)C)c4ccccc4n3)CC2)c1` [Example 1086, N-(cis-4-{[4-(dimethylamino)quinazolin-2-yl]amino}cyclohexyl)-N2-(3-methylphenyl)glycinamide], the IC50 is below 50 nM.

On to `CN(C)c1nc(N[C@H]2CC[C@@H](NC(=O)CNc3cccc(F)c3)CC2)nc2ccccc12` [Example 1087, N-(cis-4-{[4-(dimethylamino)quinazolin-2-yl]amino}cyclohexyl)-N2-(3-fluorophenyl)glycinamide], for which the IC50 was below 50 nM.

The record behind these values is patent publication US20070010671A1, “Novel quinazoline derivatives and methods of treatment related to the use thereof” (priority 2003, published 2007).
